US20060089318A1, “Inhibitors of adp-ribosyl transferases, cyclases, and hydrolases” (priority 2002, published 2006)
Like-named read-outs stand apart in the source and are kept apart here.

Columns and labels:
[1] = biological target: T1, human CD38 (Homo sapiens, UniProt P28907); test: Competitive and slow-onset inhibition of CD38-catalyzed conversion of NGD+ to cGDPR (295 nm absorbance); format: biochemical; design: The soluble domain of human CD38 catalyzes the conversion of NAD^+ to cyclic-ADP-ribose; details: for Inhibition of CD38 conversion of NGD+ to cGDPR: even at millimolar concentrations of compound; for Ki: 19° C.
T1 sequence (P28907 43-300 limits assumed): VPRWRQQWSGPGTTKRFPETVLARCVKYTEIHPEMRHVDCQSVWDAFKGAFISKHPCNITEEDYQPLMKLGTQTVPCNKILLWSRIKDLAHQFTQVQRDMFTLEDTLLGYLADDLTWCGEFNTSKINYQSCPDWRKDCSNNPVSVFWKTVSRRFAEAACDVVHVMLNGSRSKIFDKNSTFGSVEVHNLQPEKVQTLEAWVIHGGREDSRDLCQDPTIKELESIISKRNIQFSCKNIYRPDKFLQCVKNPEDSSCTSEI
Experimental: Determination of Ki and kon by competitive method. To 1 mL solutions of 50 mM potassium phosphate pH 7.2 and 100 μM NGD^+ containing, 50, 25, 12.5, and 6.25 and 0 μM inhibitor 1 was added 2 μL of 7 μM CD38. Reaction progress upon initiation by enzyme addition was monitored by measurement of […] absorbance. The initial slopes were used to determine the Ki value, and all points of the experiment were fit to the equation A(t)=vt+(b−v)(1−exp(−kt))/k+A0 where k is the observed rate constant, b is the initial rate, v is the final rate and A0 is the initial absorbance was used to evaluate kon.
Determination of Competitive Inhibition by Initial Rates: The inhibitors 1-3 were evaluated for inhibition of CD38 enzymatic activity using a spectrophotometric assay. CD38 catalyzes the conversion of NGD^+ to cyclic-GDP ribose (cGDPR, Scheme 4) and product formation can be monitored by 295 nm absorbance measurement. […] A similar reaction containing 40 μM NGD^+ at several concentrations of 2 was also performed (FIG. 3).
Slow Phase Inhibition. […] This slow phase was not due to substrate depletion and was attributable to a kinetic process leading to progressive inhibition of the enzyme. The “slow-onset” absorbance curves could be fit using the equation At=vit+(vi−vf)(1−exp(−kt))/k+A0 where At is absorbance, vi is initial velocity, vf is final velocity, t is time in s, k is the rate of the slow onset process and A0 is absorbance of the sample at initial time. These fits are shown by the solid lines in FIG. 2 and FIG. 3. The rate constant for the slow phase could be obtained from the average value of k determined from the separate fits. The value of k for 1 was determined to be 0.0042±0.001 s^−1 and the value of k for 2 was determined to be 0.0083±0.002 s^−1. The parameter k is defined as kon in Scheme 5. [drawing 22]
Calculation of Total Inhibition. […] This equation is valid for slow onset behavior inhibitors and also mechanistic based inactivators of enzymes where a slow recovery of the enzyme from chemical inactivation is present.

[2] = biological target: CD38; details: literature values (Sauve et al., 2000; Muller-Steffner et al., 1992); cited from earlier work
[3] = biological target: T2, CD38 (Homo sapiens, UniProt P28907); details: comparison values for substrates; read-out: Km of substrate for CD38; cited from earlier work
T2 sequence (P28907 45-300 limits assumed): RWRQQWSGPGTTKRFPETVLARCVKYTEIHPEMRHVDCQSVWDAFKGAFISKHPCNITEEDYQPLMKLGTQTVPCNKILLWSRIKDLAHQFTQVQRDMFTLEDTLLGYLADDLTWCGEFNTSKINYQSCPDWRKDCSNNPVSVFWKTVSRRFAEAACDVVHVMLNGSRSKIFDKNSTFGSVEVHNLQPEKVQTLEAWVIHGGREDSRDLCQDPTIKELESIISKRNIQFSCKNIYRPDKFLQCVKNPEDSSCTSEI

[4] = biological target: T2, CD38; details: read-out: Apparent Km for nicotinamide rescue; CD38 inactivated by ara-F-NMN+; cited from earlier work
[5] = biological target: T1, human CD38; test: CD38-catalyzed base-exchange reaction of 2 with nicotinamide to form 1 (HPLC); format: biochemical; design: The soluble domain of human CD38 catalyzes the conversion of NAD^+ to cyclic-ADP-ribose
Experimental: Base-exchange reaction. […] These reactions were run separately in autosampler tubes held at 19° C. in a temperature regulated autosampler and assayed by multiinjection HPLC using 5 mM K2PO4H pH 5.0 and 2.5% MeOH as eluant. The quantity of 2 reacted and the quantity of 1 formed versus time was determined by integrations of the peaks for 1 and 2 with comparison to standards.

[6] = biological target: T1, human CD38; details: read-out: Apparent Km for nicotinamide rescue of CD38 activity; CD38 preinhibited by 2
Experimental: 10 mL CD38 (1 μM) in K2PO4H was incubated with 2 (10 μM) for 30 minutes at room temperature and subsequently placed on ice. […] To a two syringe Applied Photophysics spectrophotometer in fluorescence mode was added inhibited enzyme to one syringe and NGD^+ solution to the other. Fluorescence was used to monitor cGDPR formation and the total fluorescence curves fit using the activity recovery equation. F(t)=vt+(b−v)(1−exp(−kt))/k+F0 where k is the observed rate constant, b is the initial rate, v is the final rate and F0 is the initial absorbance.
A stopped flow, two syringe fitted spectrophotometer was used to perform the experiments. The fluorescence of cGDPR was measured as a function of time to generate curves that contain an exponential and a linear phase prior to substrate exhaustion. These curves were fit to the equation Ft=vft+(vi−vf)(1−exp(−kt))/k+F0 as previously defined.

[7] = biological target: T1, human CD38; test: Off-rate measurement: recovery of inhibited CD38 in excess NGD+; format: biochemical; design: The soluble domain of human CD38 catalyzes the conversion of NAD^+ to cyclic-ADP-ribose; details: 19° C.
Experimental: Off-Rate Measurement. 500 nM CD38 in 50 mM potassium phosphate pH 7.2 was incubated with 15 μM inhibitor for 30 min at room temperature. 5 μL of the enzyme inhibitor solution was added to a cuvette containing 1 mL reaction of 50 mM potassium phosphate pH 7.5 containing 300 μM NGD^+ pre-chilled to 19° C. Production of […] was determined by monitoring […] absorbance. The absorbance was fit to the equation A(t)=vt+(b−v) (1−exp(−kt))k+A0 where A(t) is the absorbance, k is the rate constant of recovery, b is the initial rate, v is the final rate and A0 is the initial absorbance. A control lacking inhibitor but in all other respects identical was also run.
Recovery from Inhibition. […] The solution 295 nm absorbance is monitored spectrophotometrically to assay conversion of NGD^+ to cGDPR as a consequence of regain of CD38 catlytic activity. […] The absorbance curves with the same equation used for slow-onset: At=vit+(vi−vf)(1−exp(−kt))/k+A0 where At is absorbance, vi is initial velocity, vf is final velocity, t is time in s, k is the rate of the recovery rate constant and A0 is the absorbance of the sample at initial time. The rate constant for the recovery phase was obtained from the average value of k determined from the separate fits. The value of koff for 1 was determined to be 1.5×10^−5 s^−1 and for 2 was determined to be 2.5×10^−5 s^−1.

[8] = Solution hydrolysis (chemical stability); format: physicochemical
From the text: Without being bound to any particular mechanism, it is believed that the electron-contributing moiety on A stabilizes the compounds of the invention such that they are less susceptible to hydrolysis from the rest of the compound. For example, the compound β-1′-5-methyl-nicotinamide-2′-deoxyribose (established as an effective inhibitor of CD38 in Example 1) was compared with β-1′-nicotinamide-2′-deoxyribose in its ability to resist solution hydrolysis. […] This difference in chemical stability means that β-1′-nicotinamide-2′-deoxyribose is 50% depleted from solution in 2 hours, whereas β-1′-5-methyl-nicotinamide-2′-deoxyribose is not hydrolyzed by 50% until 12 hours. This improved chemical stability improves the value of the compound, since it is available for action for longer periods of time in biological systems due to resistance to hydrolytic breakdown.

[9] = biological target: T1, human CD38; test: Radiochemical measurement of inhibitor binding (labeling of CD38 by [2'-3H] inhibitor, gel filtration and scintillation counting); design: The soluble domain of human CD38 catalyzes the conversion of NAD^+ to cyclic-ADP-ribose; details: 25° C.; 9 μM inhibitor, 1.2 μM CD38 monomer
Experimental: Radiochemical measurement of inhibitor binding. […] Inhibitor at 9 μM with specific radioactivity of 866 cpm/nmol, was incubated with 1.2 μM CD38 (monomer) in 1 mL 50 mM potassium phosphate (pH 7.5). The reactions were started by enzyme addition and quenched by freezing with a dry ice/acetone bath at 30, 60 90, 120, 250, 500, and 1000 s. Cooled (0° C.) gel filtration columns were used to separate protein with cooled (0° C.) 10 mM potassium phosphate as eluant. The frozen fraction were quickly thawed, applied to these columns and fractions collected in 1 mL volumes over the course of several minutes. Scintillation fluid (9 mL) was then added to each 1 mL fraction and samples counted. […] The observed radioactivity was fit using the equation A(t)=A0(1−exp(−kt))+B. where A0 is activity at reaction completion, k is the observed pseudo-first order rate constant and B is the activity of the blank.
Titration of Enzyme with [2′-^3H]Inhibitor. CD38 inactivation was accomplished using a radiolabeled inhibitor to assess inhibitor interactions with the enzyme independent from inhibition of the catalytic activity. This method allows the determination of the stoichiometry of covalent labeling, and detects cooperativity at multiple sites. […] (FIG. 8) within reasonable agreement with the rate constant for inactivation in kinetic assays of inhibition (kon=0.0042 s^−1 at 19° C.). […]

[10] = 100 μM NGD+ for 1, 40 μM NGD+ for 2, 50 mM potassium phosphate pH 7.2, read-out: Ki (competitive inhibition, from initial rates)
[11] = calculated from the kinetic parameters, read-out: Ki(total) = (koff/kon)*Ki, effective dissociation constant
[12] = 10 mM potassium phosphate, pH 6.5, 25° C.

NC(=O)c1ccc[n+](C2CC(O)C(CO)O2)c1 (single isomer, unassigned) [α isomer of 1]
Inhibition of CD38 conversion of NGD+ to cGDPR [1]: did not inhibit

NC(=O)c1ccc[n+]([C@@H]2O[C@H](COP(=O)([O-])OP(=O)(O)OC[C@H]3O[C@@H](n4cnc5c(N)ncnc54)[C@H](O)[C@@H]3O)[C@@H](O)[C@H]2F)c1 [ara-F-NAD^+]
Ki [2]: 169 nM

NC(=O)c1ccc[n+]([C@@H]2O[C@H](COP(=O)(O)O)[C@@H](O)[C@H]2O)c1 [NMN^+]
Km [3]: 150 µM

NC(=O)c1cccnc1 [nicotinamide]
Km [4]: 17000 µM | Km ([5]; read-out: Km of nicotinamide for steady state base exchange, 75 μM 2, 1 μM CD38, 19° C.): 920 µM | Km [6]: 2400 µM

NC(=O)c1ccc[n+]([C@@H]2O[C@H](COP(=O)([O-])OP(=O)(O)OC[C@H]3O[C@@H](n4cnc5c(N)ncnc54)[C@H](O)[C@@H]3O)[C@@H](O)[C@H]2O)c1 [NAD^+, nicotinamide adenine dinucleotide]
Km [3]: 15 µM

NC(=O)c1ccc[n+]([C@H]2C[C@H](O)[C@@H](CO)O2)c1 [inhibitor 1, β-nicotinamide-2′-deoxyriboside]
koff (rate constant of recovery from inhibition) [7]: ~2e-05 s⁻¹ | Ki [1, 10]: 1200 nM | Ki [1, 11]: 4.5 nM | Rate constant for solution hydrolysis [8, 12]: 9.6e-05 s⁻¹ | Time to 50% depletion from solution by hydrolysis [8]: 2 h | Rate constant of radiochemical labeling of CD38 (kchem) [9]: 0.01 s⁻¹

OC[C@H]1O[C@@H]([n+]2ccccc2)C[C@@H]1O [inhibitor 3, β-pyridyl-deoxyriboside]
Inhibition of CD38 conversion of NGD+ to cGDPR [1]: did not inhibit

NC(=O)c1ccc[n+]([C@@H]2O[C@H](COP(=O)([O-])OP(=O)(O)OC[C@H]3O[C@@H](n4cnc5c(=O)[nH]c(N)nc54)[C@H](O)[C@@H]3O)[C@@H](O)[C@H]2O)c1 [NGD^+, nicotiramide guanine dinucleotide]
Km [3]: 2.5 µM

[3H]C1[C@H]([n+]2cccc(C(N)=O)c2)O[C@H](CO)[C@H]1O (stereo partly shown) [[2-^3H]-1, [2′-^3H]Nicotinamide deoxyriboside]
Rate constant of radiochemical labeling of CD38 (kchem) [9]: 0.01 s⁻¹

Cc1cc(C(N)=O)c[n+](C2CC(O)C(CO)O2)c1 (single isomer, unassigned) [α isomer of 2]
Inhibition of CD38 conversion of NGD+ to cGDPR [1]: did not inhibit

NC(=O)c1ccc[n+]([C@@H]2O[C@H](COP(=O)(O)O)C(O)C2F)c1 (stereo partly shown) [ara-F-NMN^+]
Ki [2]: 61 nM

Cc1cc(C(N)=O)c[n+]([C@H]2C[C@H](O)[C@@H](CO)O2)c1 [inhibitor 2, β-5-methyl-nicotinamide-2′-deoxyriboside]
koff (rate constant of recovery from inhibition) [7]: ~2e-05 s⁻¹ | kcat of base exchange (2 to 1) ([5]; 75 μM 2, 1 μM CD38, nicotinamide 0-40 mM, 19° C.): 0.007 s⁻¹ | Ki [1, 10]: 4000 ± 500 nM | Ki [1, 11]: 12.5 nM | Decrease in the rate of hydrolysis versus β-1′-nicotinamide-2′-deoxyribose (factor) [8, 12]: 6 | Rate constant for solution hydrolysis [8, 12]: 1.5e-05 s⁻¹ | Time to 50% depletion from solution by hydrolysis [8]: 12 h
